Results: patent US10526320B2, “Pyrrolidine derivatives as PPAR agonists” (GUANGDONG RAYNOVENT BIOTECH CO., LTD., priority 2016, dated 2020)
Read-outs that look alike come from different tables or passages of the source.

How the values were obtained:
Assay type in all cases: cell-based
PPAR Alpha = target: T1, PPAR Alpha (Homo sapiens, UniProt Q07869); experiment: PathHunter NHR protein interaction / nuclear translocation agonist test, PPAR Alpha; conditions: for Emax: read-out: PPAR Alpha Maximum Activation Response %
T1 sequence (Q07869 1-468): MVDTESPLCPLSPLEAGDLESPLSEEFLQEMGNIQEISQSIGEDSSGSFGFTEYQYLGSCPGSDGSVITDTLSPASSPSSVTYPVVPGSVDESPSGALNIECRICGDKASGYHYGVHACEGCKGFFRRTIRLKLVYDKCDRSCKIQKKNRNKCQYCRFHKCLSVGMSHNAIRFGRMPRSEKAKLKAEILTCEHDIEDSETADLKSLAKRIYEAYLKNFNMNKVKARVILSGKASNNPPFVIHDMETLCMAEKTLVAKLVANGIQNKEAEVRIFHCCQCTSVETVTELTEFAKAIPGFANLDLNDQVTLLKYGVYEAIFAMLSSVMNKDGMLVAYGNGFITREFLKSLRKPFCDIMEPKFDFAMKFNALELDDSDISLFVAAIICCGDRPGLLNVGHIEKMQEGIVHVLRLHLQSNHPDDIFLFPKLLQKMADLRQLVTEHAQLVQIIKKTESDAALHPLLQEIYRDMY

PPAR Delta = target: T2, PPAR Delta (Homo sapiens, UniProt Q03181); experiment: PathHunter NHR protein interaction / nuclear translocation agonist test, PPAR Delta; conditions: for Emax: read-out: PPAR Delta Maximum Activation Response %
T2 sequence (Q03181 1-441): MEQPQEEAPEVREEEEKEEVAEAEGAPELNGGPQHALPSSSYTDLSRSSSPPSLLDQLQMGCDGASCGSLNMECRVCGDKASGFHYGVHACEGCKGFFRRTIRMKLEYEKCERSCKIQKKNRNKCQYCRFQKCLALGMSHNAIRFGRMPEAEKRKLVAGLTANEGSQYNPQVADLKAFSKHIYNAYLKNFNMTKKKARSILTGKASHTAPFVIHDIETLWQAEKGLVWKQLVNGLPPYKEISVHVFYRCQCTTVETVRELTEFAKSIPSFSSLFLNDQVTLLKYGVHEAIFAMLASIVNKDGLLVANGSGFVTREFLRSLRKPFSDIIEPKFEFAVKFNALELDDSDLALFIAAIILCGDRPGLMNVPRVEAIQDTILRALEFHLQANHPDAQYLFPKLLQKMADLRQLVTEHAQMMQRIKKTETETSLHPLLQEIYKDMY

PPAR Gamma = target: T3, PPAR Gamma (Homo sapiens, UniProt P37231); experiment: PathHunter NHR protein interaction / nuclear translocation agonist test, PPAR Gamma; conditions: for Emax: read-out: PPAR Gamma Maximum Activation Response %
T3 sequence (P37231 1-505): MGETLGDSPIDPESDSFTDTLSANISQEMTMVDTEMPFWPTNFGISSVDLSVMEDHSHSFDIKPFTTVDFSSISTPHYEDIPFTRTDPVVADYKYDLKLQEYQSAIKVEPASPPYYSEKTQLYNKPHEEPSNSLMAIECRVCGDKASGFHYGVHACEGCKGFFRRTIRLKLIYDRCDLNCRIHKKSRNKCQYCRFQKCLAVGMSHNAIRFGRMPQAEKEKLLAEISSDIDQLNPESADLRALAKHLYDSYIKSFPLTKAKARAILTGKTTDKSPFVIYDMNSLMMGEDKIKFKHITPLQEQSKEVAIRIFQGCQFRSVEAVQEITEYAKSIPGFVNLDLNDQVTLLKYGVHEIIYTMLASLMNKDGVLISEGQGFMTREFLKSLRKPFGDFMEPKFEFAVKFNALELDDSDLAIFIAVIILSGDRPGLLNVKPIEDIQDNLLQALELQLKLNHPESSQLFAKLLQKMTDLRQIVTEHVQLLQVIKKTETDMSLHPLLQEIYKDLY

[1] = agonist mode, read-out: PPAR Alpha EC50
[2] = agonist mode, read-out: PPAR Delta EC50
[3] = agonist mode, read-out: PPAR Gamma EC50
[4] = relative to known PPARδ agonist L-165,041 = 100%
[5] = relative to known PPARγ agonist Troglitazone = 100%

| SMILES | EC50 (PPAR Alpha; [1]) [nM] | Emax (PPAR Alpha) [%] | EC50 (PPAR Delta; [2]) [nM] | Emax (PPAR Delta) [%] | EC50 (PPAR Gamma; [3]) [nM] | Emax (PPAR Gamma) [%] | Emax (PPAR Delta; [4]) [%] | Emax (PPAR Gamma; [5]) [%] | EC50 (PPAR Alpha; PPAR Alpha EC50 nM) [nM] | EC50 (PPAR Delta; PPAR Delta EC50 nM) [nM] | EC50 (PPAR Gamma; PPAR Gamma EC50 nM) [nM] |
| --- | --- | --- | --- | --- | --- | --- | --- | --- | --- | --- | --- |
| COC(=O)N1CC(CCc2cc(C)c(OC(C)(C)C(=O)O)c(C)c2)C(C(=O)c2ccc(SC)cc2)C1 (single isomer, unassigned) [Compound 57] | < 100 | 80 to 100 | < 100 | 50 to 80 | 200 to 250 | 50 to 80 | – | – | – | – | – |
| Cc1cc(CCC2CN(C(=O)Oc3ccccc3)CC2C(=O)c2ccc(F)cc2)cc(C)c1OC(C)(C)C(=O)O (single isomer, unassigned) [Compound 63] | < 100 | 80 to 100 | < 100 | – | 200 to 250 | – | 80 to 100 | 80 to 100 | – | – | – |
| Cc1cc(CCC2CN(C(=O)Oc3ccccc3)CC2C(=O)c2ccc(Cl)s2)cc(C)c1OC(C)(C)C(=O)O (single isomer, unassigned) [Compound 47] | < 100 | 80 to 100 | < 100 | – | 150 to 200 | – | 80 to 100 | 80 to 100 | – | – | – |
| CSc1ccc(C(=O)C2CN(C(=O)Oc3ccccc3)CC2Cc2ccc(OC(C)(C)C(=O)O)c(C)c2)cc1 (single isomer, unassigned) [Compound 77] | 150 to 200 | 80 to 100 | 150 to 200 | – | > 250 | – | 80 to 100 | 80 to 100 | – | – | – |
| CSc1ccc(C(=O)[C@H]2CN(C(=O)Oc3ccc(C)nc3)C[C@@H]2Cc2cc(C)c(OC(C)(C)C(=O)O)c(C)c2)cc1 (racemic) [Compound 53] | – | 80 to 100 | – | 50 to 80 | – | 80 to 100 | – | – | 100 to 150 | 100 to 150 | > 250 |
| CSc1ccc(C(=O)[C@H]2CNC[C@@H]2CCc2cc(C)c(OC(C)(C)C(=O)O)c(C)c2)cc1 (racemic) [Compound 56] | > 250 | < 50 | 200 to 250 | 50 to 80 | > 250 | < 50 | – | – | – | – | – |
| Cc1cc(CC[C@H]2CN(C(=O)Oc3ccccc3)C[C@@H]2C(=O)c2ccc(S(C)(=O)=O)cc2)cc(C)c1OC(C)(C)C(=O)O (racemic) [Compound 68] | – | 80 to 100 | > 250 | 80 to 100 | > 250 | – | – | 80 to 100 | – | – | – |
| CSc1ccc(C(=O)C2CN(C(=O)Oc3ccccc3)CC2CCc2ccc(OC(C)(C)C(=O)O)cc2)cc1 (single isomer, unassigned) [Compound 80] | < 100 | 80 to 100 | 150 to 200 | – | > 250 | – | 80 to 100 | 80 to 100 | – | – | – |
| CSc1ccc(C(=O)C2CN(C(=O)Oc3ccccc3)CC2CCc2ccc(OC(C)(C)C(=O)O)c(F)c2)cc1 (single isomer, unassigned) [Compound 82] | < 100 | 80 to 100 | 100 to 150 | – | 200 to 250 | – | 80 to 100 | 80 to 100 | – | – | – |
| CSc1ccc(C(=O)C2CN(C(=O)Oc3ccc(Cl)cc3)CC2c2cc(C)c(OC(C)(C)C(=O)O)c(C)c2)cc1 (single isomer, unassigned) [Compound 14] | < 100 | – | < 100 | – | > 250 | – | – | – | – | – | – |
| Cc1cc(CC2CN(C(=O)Oc3ccccc3)CC2C(=O)c2ccc(Cl)cc2)cc(C)c1OC(C)(C)C(=O)O (single isomer, unassigned) [Compound 70] | < 100 | 80 to 100 | < 100 | – | 150 to 200 | – | 80 to 100 | 80 to 100 | – | – | – |
| Cc1cc(CCC2CN(C(=O)Oc3ccccc3)CC2C(=O)c2ccc(Cl)cc2)cc(C)c1OC(C)(C)C(=O)O (single isomer, unassigned) [Compound 65] | < 100 | – | < 100 | 80 to 100 | 200 to 250 | – | – | – | – | – | – |
